Source: PMC4457528, “Identification of Novel Small Molecule Inhibitors of Oncogenic RET Kinase” (PLoS ONE, 2015)
Read-outs that look alike come from different tables or passages of the source.

How the values were obtained:
Assay in all cases: KinomeScan kinase panel, single concentration 10 µM
Assay type in all cases: binding
[1] = biological target: T1, KinomeScan kinase panel (Homo sapiens, UniProt P00533, DEL746-750)
T1 construct: purchased DiscoveRx (KinomeScan)

[2] = biological target: T2, KinomeScan kinase panel (Homo sapiens, UniProt P30530); conditions: AXL, 10 µM; read-out: score (%)
T2 construct: purchased DiscoveRx (KinomeScan)
T2 sequence (P30530 26-894): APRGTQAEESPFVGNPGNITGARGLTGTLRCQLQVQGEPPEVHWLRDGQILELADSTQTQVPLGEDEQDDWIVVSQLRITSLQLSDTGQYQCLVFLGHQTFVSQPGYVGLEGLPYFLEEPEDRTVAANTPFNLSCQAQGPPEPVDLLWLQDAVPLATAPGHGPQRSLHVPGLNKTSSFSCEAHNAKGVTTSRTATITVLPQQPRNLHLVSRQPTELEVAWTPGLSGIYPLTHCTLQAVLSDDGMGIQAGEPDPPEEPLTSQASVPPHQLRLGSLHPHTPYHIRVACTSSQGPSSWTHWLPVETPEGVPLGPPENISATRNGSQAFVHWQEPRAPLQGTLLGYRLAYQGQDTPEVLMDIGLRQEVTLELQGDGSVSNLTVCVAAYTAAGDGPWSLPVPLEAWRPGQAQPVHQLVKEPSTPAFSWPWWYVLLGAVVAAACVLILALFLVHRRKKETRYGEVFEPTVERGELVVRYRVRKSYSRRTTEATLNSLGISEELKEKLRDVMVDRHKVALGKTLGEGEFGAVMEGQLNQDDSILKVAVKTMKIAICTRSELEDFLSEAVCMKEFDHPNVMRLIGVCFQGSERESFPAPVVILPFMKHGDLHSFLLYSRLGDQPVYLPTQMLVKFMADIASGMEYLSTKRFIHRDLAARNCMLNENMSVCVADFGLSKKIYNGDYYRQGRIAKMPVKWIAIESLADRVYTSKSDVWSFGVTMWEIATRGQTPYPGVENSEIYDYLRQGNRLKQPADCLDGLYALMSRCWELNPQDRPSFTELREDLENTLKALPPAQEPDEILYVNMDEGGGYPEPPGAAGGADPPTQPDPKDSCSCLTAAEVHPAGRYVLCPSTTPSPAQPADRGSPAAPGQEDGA

[3] = biological target: T3, KinomeScan kinase panel (Homo sapiens, UniProt P36888, N841I); conditions: FLT3(N841I), 10 µM; read-out: score (%)
T3 construct: purchased DiscoveRx (KinomeScan)
T3 sequence (P36888 27-993 N841I): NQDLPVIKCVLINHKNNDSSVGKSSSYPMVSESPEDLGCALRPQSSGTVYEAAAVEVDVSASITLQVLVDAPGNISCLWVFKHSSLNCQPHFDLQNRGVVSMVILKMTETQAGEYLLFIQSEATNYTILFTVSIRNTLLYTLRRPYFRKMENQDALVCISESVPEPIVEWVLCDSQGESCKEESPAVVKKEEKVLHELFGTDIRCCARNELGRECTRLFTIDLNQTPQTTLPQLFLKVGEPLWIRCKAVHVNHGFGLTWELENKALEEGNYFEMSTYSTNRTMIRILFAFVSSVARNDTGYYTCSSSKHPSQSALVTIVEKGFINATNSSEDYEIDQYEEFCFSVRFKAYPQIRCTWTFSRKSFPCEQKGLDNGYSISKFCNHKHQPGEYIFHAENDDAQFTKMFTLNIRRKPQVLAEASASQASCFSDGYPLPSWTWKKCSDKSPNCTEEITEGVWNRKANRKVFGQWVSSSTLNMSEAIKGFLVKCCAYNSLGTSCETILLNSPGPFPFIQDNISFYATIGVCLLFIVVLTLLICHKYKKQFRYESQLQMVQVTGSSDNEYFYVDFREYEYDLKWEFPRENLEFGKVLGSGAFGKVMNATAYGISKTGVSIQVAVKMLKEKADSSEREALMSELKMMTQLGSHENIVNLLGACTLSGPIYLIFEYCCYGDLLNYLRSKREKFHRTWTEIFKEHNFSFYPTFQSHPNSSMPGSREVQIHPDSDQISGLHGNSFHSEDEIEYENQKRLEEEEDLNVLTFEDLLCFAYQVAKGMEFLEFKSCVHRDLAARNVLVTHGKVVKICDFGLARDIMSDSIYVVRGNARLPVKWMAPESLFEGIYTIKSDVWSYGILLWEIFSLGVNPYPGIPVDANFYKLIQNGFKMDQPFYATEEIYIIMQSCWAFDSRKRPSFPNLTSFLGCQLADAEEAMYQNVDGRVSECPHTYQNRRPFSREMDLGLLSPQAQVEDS

[4] = biological target: T4, KinomeScan kinase panel (Homo sapiens, UniProt P45984); conditions: JNK2, 10 µM
T4 construct: purchased DiscoveRx (KinomeScan)
T4 sequence (P45984 whole entry): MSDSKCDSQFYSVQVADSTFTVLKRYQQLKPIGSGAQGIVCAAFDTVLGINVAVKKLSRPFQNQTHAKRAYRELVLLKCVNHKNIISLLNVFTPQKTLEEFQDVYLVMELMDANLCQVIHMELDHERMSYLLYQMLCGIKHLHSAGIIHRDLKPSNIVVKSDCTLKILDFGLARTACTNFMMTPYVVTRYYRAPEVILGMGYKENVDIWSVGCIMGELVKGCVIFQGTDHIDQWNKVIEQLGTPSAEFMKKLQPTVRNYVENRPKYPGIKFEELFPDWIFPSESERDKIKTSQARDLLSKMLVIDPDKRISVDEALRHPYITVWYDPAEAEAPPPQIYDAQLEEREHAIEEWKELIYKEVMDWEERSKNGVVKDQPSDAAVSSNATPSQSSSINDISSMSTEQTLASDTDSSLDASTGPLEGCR

[5] = biological target: T5, KinomeScan kinase panel (Homo sapiens, UniProt Q9UIK4); conditions: DAPK2, 10 µM; read-out: score (%)
T5 construct: purchased DiscoveRx (KinomeScan)
T5 sequence (Q9UIK4 whole entry): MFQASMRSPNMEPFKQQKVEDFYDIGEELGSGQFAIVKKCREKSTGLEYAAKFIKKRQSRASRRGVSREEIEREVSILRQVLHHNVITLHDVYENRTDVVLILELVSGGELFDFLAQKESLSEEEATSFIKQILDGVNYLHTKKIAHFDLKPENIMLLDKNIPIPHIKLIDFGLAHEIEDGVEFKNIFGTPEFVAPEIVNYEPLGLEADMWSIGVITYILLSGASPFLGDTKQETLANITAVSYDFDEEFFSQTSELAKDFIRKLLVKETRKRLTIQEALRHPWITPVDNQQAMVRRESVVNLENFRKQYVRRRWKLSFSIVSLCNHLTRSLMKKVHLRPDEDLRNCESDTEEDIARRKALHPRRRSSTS

[6] = biological target: T6, KinomeScan kinase panel (Homo sapiens, UniProt Q07002); conditions: PCTK3, 10 µM; read-out: score (%)
T6 construct: purchased DiscoveRx (KinomeScan)
T6 sequence (Q07002 whole entry): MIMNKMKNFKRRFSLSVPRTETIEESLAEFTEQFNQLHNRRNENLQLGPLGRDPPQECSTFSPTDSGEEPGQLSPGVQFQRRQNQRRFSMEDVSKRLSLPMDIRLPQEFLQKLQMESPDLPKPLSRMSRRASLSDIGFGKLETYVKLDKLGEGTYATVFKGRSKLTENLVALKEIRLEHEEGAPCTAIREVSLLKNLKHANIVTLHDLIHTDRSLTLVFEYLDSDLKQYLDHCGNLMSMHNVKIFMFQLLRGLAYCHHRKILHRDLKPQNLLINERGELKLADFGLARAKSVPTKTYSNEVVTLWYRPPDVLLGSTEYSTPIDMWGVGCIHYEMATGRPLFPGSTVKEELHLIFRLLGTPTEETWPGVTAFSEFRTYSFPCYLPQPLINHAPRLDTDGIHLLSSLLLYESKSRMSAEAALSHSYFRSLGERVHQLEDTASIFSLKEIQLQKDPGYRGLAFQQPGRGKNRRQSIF

[7] = biological target: T7, KinomeScan kinase panel (Homo sapiens, UniProt P07947); conditions: kinase YES; 10 µM; read-out: score (%)
T7 construct: purchased DiscoveRx (KinomeScan)
T7 sequence (P07947 whole entry): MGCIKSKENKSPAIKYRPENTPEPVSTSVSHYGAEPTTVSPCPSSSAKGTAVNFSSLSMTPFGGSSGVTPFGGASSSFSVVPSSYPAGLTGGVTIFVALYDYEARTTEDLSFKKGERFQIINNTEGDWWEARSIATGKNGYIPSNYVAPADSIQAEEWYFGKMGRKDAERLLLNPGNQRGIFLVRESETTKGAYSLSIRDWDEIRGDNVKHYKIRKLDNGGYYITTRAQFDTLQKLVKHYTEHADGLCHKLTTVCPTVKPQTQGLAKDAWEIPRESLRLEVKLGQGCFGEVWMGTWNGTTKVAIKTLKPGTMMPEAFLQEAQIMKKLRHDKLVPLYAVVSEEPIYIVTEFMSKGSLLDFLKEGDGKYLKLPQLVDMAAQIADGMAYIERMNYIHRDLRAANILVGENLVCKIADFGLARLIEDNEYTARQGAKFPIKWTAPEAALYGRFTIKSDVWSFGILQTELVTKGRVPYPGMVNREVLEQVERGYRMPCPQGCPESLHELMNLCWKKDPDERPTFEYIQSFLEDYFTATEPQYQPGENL

[8] = biological target: T8, KinomeScan kinase panel (Homo sapiens, UniProt Q14680); conditions: MELK, 10 µM; read-out: score (%)
T8 construct: purchased DiscoveRx (KinomeScan)
T8 sequence (Q14680 whole entry): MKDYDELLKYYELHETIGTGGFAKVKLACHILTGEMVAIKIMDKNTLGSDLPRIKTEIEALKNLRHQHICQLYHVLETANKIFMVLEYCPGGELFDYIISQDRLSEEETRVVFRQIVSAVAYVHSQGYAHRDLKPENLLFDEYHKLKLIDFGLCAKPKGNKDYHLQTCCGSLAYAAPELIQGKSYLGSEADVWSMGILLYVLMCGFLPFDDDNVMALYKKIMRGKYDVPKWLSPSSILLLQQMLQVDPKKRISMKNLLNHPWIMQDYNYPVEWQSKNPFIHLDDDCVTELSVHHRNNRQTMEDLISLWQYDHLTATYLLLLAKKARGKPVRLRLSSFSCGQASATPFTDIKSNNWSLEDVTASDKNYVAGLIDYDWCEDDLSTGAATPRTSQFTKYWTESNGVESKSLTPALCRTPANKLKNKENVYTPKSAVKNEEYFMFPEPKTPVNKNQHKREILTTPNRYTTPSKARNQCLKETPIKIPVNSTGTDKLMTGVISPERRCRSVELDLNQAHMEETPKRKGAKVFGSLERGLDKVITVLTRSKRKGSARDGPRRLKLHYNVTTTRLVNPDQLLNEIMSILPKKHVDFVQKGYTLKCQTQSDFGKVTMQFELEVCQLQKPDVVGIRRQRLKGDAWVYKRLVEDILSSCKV

[9] = biological target: T9, KinomeScan kinase panel (Homo sapiens, UniProt P11309); conditions: PIM1, 10 µM; read-out: score (%)
T9 construct: purchased DiscoveRx (KinomeScan)
T9 sequence (P11309 whole entry): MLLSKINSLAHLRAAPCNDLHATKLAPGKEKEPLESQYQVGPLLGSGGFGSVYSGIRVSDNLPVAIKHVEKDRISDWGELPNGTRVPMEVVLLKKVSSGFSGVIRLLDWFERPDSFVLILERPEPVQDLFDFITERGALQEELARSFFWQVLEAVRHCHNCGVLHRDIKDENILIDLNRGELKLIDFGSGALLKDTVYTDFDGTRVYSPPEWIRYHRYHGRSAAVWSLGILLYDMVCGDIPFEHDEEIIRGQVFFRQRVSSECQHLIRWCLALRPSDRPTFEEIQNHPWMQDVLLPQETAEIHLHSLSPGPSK

T1 sequence (P00533 with tags, fused parts or gaps DEL746-750): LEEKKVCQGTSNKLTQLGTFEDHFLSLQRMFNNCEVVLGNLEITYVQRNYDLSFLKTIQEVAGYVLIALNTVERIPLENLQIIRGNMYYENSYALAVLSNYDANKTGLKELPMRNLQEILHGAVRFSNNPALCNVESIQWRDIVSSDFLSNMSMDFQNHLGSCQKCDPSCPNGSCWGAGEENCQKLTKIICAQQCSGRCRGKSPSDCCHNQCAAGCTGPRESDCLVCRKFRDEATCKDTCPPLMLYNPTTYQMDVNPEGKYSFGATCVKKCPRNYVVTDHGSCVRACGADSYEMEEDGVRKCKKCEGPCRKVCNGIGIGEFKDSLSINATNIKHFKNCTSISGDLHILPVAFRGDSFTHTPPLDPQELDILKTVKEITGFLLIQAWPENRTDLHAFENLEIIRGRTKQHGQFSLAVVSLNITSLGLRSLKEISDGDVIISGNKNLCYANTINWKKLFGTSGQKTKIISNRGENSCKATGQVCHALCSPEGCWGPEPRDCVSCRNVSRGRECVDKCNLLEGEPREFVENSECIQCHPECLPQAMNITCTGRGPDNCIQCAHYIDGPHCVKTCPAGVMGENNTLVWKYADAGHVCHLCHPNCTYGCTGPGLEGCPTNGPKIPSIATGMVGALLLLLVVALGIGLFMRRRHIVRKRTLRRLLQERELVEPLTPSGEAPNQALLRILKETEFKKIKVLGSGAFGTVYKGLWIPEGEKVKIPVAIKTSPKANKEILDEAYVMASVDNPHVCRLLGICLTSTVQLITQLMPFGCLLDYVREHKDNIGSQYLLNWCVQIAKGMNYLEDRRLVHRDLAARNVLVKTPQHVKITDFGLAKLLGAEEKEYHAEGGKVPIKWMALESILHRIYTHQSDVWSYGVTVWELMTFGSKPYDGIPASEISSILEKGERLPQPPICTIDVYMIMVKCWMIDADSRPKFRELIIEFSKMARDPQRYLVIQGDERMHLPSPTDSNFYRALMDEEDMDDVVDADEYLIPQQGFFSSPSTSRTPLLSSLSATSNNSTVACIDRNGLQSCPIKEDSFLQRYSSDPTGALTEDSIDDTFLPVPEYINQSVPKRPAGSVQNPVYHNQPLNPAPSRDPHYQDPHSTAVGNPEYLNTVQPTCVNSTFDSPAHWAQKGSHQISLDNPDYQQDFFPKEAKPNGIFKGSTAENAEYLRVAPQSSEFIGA

| SMILES | score (%) ([1]; EGFR(E746-A750del), 10 µM) | remaining binding at 10 µM [2] [%] | remaining binding at 10 µM [3] [%] | score (%) [4] [%] | remaining binding at 10 µM [5] [%] | remaining binding at 10 µM [6] [%] | remaining binding at 10 µM [7] [%] | remaining binding at 10 µM [8] [%] | remaining binding at 10 µM [9] [%] | score (%) [1] [%] |
| --- | --- | --- | --- | --- | --- | --- | --- | --- | --- | --- |
| CCN1CCN(Cc2ccc(NC(=O)c3ccc(C)c(C#Cc4cccnc4)c3)cc2C(F)(F)F)CC1 [XMD15-44] | 1.8 | 2.9 | 0 | 0 | > 30 | 6.2 | 0.1 | 8.1 | 84 | – |
| CCN1CCN(Cc2ccc(NC(=O)c3ccc(C)c(/C=C/c4cnc5[nH]ccc5c4Cl)c3)cc2C(F)(F)F)CC1 [HG-6-63-01, (E)-3-(2-(4-chloro-1H-pyrrolo[2,3-b]pyridin-5-yl)vinyl)-N-(4-((4-ethylpiperazin-1-yl)methyl)-3-(trifluoromethyl)phenyl)-4-methylbenzamide] | 0.9 | 17 | 0.15 | 1.1 | > 30 | > 30 | 0.85 | 22 | > 30 | – |
| CCN1CCN(Cc2ccc(NC(=O)c3ccc(C)c(NC(=O)c4cncc(-c5cccs5)c4)c3)cc2C(F)(F)F)CC1 [ALW-II-41-27] | – | > 30 | 0.75 | 0.25 | > 30 | > 30 | 0.1 | > 30 | > 30 | 1.2 |
